Measured values as given in PubChem BioAssay (NCI).
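The compound was tested at five concentrations on cells cultured in 96-well plates, with a 48-hour exposure period. TGI: total growth inhibition.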 Where a SMILES comes first, the peptide text is derived from it. [ ]: non-standard residue; d: D form. ΔPro = O=C(O)[CH]1C=CCN1

What was measured:
Assay in all cases: NCI-60 cell line screen, 48 h
SF-539 CNS = tested on: SF-539 CNS
MDA-MB-435 = tested on: MDA-MB-435
HCT-15 colon = tested on: HCT-15 colon
PC-3 prostate = tested on: PC-3 prostate
TK-10 renal = tested on: TK-10 renal
NCI-H460 lung = tested on: NCI-H460 lung
OVCAR-4 ovarian = tested on: OVCAR-4 ovarian
MCF7 breast = tested on: MCF7 breast
BT-549 breast = tested on: BT-549 breast
HCC-2998 colon = tested on: HCC-2998 colon
CAKI-1 renal = tested on: CAKI-1 renal
DU-145 prostate = tested on: DU-145 prostate
HCT-116 colon = tested on: HCT-116 colon
SW-620 colon = tested on: SW-620 colon
MDA-MB-231 breast = tested on: MDA-MB-231 breast
CCRF-CEM leukemia = tested on: CCRF-CEM leukemia
K-562 leukemia = tested on: K-562 leukemia

Row | Structure (SMILES) | TGI (SF-539 CNS) [µM] | TGI (MDA-MB-435) [µM] | TGI (HCT-15 colon) [µM] | TGI (PC-3 prostate) [µM] | TGI (TK-10 renal) [µM] | TGI (NCI-H460 lung) [µM] | TGI (OVCAR-4 ovarian) [µM] | TGI (MCF7 breast) [µM] | TGI (BT-549 breast) [µM] | TGI (HCC-2998 colon) [µM] | TGI (CAKI-1 renal) [µM] | TGI (DU-145 prostate) [µM] | TGI (HCT-116 colon) [µM] | TGI (SW-620 colon) [µM] | TGI (MDA-MB-231 breast) [µM] | TGI (CCRF-CEM leukemia) [µM] | TGI (K-562 leukemia) [µM]
1 | C=C1c2nc3ccccc3n2C=C(c2ccccc2)N1c1ccc(Cl)cc1 | 20.9 | > 100 | > 90.1 | > 100 | 57.2 | > 49.4 | 61.6 | > 100 | > 66.2 | > 100 | 21.6 | > 100 | > 100 | > 100 | 51.8 | > 100 | > 100
2 | CC(Br)CN1CCOCC1 (stereo not given) | > 100 | > 100 | > 100 | > 100 | > 100 | > 100 |  | > 100 | > 100 | > 100 | > 100 | > 100 | > 100 | > 100 | > 100 |  | > 100
3 | CC(O)CNC(=O)Nc1c(C(F)(F)F)cc(-c2ccccc2)[nH]c1=O (stereo not given) |  | > 100 | > 100 | > 100 | > 100 | > 100 | > 100 | > 100 | > 100 | > 100 | > 100 | > 100 | > 100 | > 100 | > 100 | > 100 | > 100
4 | CCOC(=O)CN1C(=O)NC(C)(c2ccccc2)C1=O (stereo not given) | > 100 | > 100 | > 100 | > 100 | > 100 |  | > 100 | > 100 | > 100 | > 100 | > 100 | > 100 | > 100 | > 100 | > 100 | > 100 | > 100
5 | CCCCCCCCOC(=O)C12Oc3ccc(-c4ccc5c(c4O)C(O)=C4C(=O)CC(C)C(O)C4(C(=O)OCCCCCCCC)O5)c(O)c3C(O)=C1C(=O)CC(C)C2O (stereo not given) | 19.7 | > 100 | > 100 | > 100 | > 100 | > 100 | > 100 | 44.9 | 41.9 | > 100 | 64.3 | > 100 | > 100 | > 100 | 59.7 | 17.9 | 17.4
6 | O=C1C=C(c2ccccc2)OC1C1Sc2ccccc2NC1=O (stereo not given) | > 100 | > 100 | > 100 | > 54.9 | > 27.9 | > 20.9 | > 100 | > 23.6 | > 100 | > 31.3 | > 100 | > 81 | 24.6 | > 100 | > 57.1 | > 24.4 | > 28.3
7 | Clc1cccc(-c2nc3cccc4c3n2Cc2ncccc2-4)c1 | > 100 | > 100 | > 100 | > 100 | > 100 | > 100 | > 100 | > 100 | > 100 | > 100 | > 100 | > 100 | > 100 | > 100 | > 100 | > 100 | > 100
8 | CN(C)[C@@H]1C(=O)C(C(=O)NCNc2nc3n[nH]nc3c(=O)[nH]2)=C(O)[C@@]2(O)C(=O)C3=C(O)c4c(O)cccc4[C@@](C)(O)[C@H]3C[C@@H]12 | 8.88 | 7.35 | > 100 | > 100 | > 80.5 | > 97.1 | > 58.3 | > 100 | > 100 | > 100 | > 100 | 22.5 | 24.7 | > 56.2 | > 100 | > 17.7 | > 16.9
9 | O=C(O)C1C=CCN1C(=O)C1C=CCN1C(=O)C1C=CCN1 (stereo not given) (H-[ΔPro]-[ΔPro]-[ΔPro]-OH; configuration not given here) | > 100 | > 100 | > 100 | > 100 | > 100 | > 100 | > 100 | > 100 | > 100 | > 100 | > 100 | > 100 | > 100 | > 100 | > 100 | > 100 | > 100
10 | CCCC(=O)OCC1OC(n2cc(F)c(=O)[nH]c2=O)CC1O (stereo not given) | 0.247 | > 10 | > 10 | > 10 | > 10 | > 10 | > 10 | > 10 | > 10 | > 2.97 | > 10 | > 10 | > 10 | > 10 | > 10 | > 10 | > 10
11 | CCO/C(O)=C(/C(=N)N1CCOCC1)C(=O)NC(C)C | > 100 | > 100 | > 100 | > 100 | > 100 | > 100 | > 100 | > 100 | > 100 | > 100 | > 100 | > 100 | > 100 | > 100 | > 100 | > 100 | > 100
12 | CN1CCN(c2cc3nc(-c4ccc(Cl)cc4)[nH]c3cc2F)CC1 |  | 32.1 | 17.9 | 40.8 | 15.4 | > 53.9 | > 62.7 | > 45.2 | 31.1 | 16.7 | 73.4 | 83.3 | > 54.4 | > 64.4 | 60.8 | 82.8 | 28.7
13 | O=S1SC(=S)C2C=CC=NC21 (stereo not given) | 33.3 | > 100 | 49.2 | 30.5 | 32.2 | 37.8 | > 100 | 38.4 | 33.9 | 28.8 | > 100 | 31.4 | 26.6 | > 100 | 42.3 | > 100 | > 100
14 | CC(=O)NS(=O)(=O)c1ccc(NCc2cccc3c(=O)c4ccc(Cl)cc4oc23)cc1 | > 65.3 | > 100 | > 55.4 | > 86.2 | > 100 | 51 | > 100 | > 100 | > 100 | > 100 | 69.6 | > 100 | > 100 | > 100 | > 100 | > 86.7 | > 100
15 | O=c1[nH]c2c(c(=O)[nH]1)SC(c1ccccc1)C2 (stereo not given) | > 100 | > 100 | > 100 | > 100 |  | > 100 | > 100 | > 100 | > 100 | > 100 | > 100 | > 100 | > 100 | > 100 | > 100 | > 100 | > 100
16 | C=C(Cl)/C(=C\Cl)CCC(Cl)C(C)C (stereo not given) (tested in a mixture with another compound) | 32.2 | 28.8 |  | 39 | 33.9 | 32.9 | 31.2 | 26.9 | 29.3 | 32.7 | 32.2 | 31.9 | 29.8 | 7.5 | 30.8 | > 100 | > 100
17 | CC1=NN(c2ccc(S(=O)(=O)O)cc2)C2(C1)C(Cl)C(=O)N2c1nc2ccccc2s1 (stereo not given) |  | > 100 | > 100 | > 100 | > 100 | > 100 | > 100 | > 100 | > 100 | > 100 | > 100 | > 100 | > 100 | > 100 | > 100 | > 100 | > 100
18 | N=c1oc2ccccc2cc1C(=O)Nc1cccc2ccccc12 | > 100 | > 100 | > 100 | > 100 |  | > 100 | > 100 | > 100 | > 100 | > 100 | > 100 | > 100 | > 100 | > 100 | > 100 | > 100 | > 100
19 | O=C1Nc2ccc(Br)cc2/C1=N/S(=O)(=O)O |  | 22.7 | > 100 | 83.3 | 57.1 | > 100 | 44.1 | 40 | > 100 | > 100 | > 100 | > 100 | > 100 | > 100 | 36 | 35.6 | 42.6
20 | Cc1c(C(=O)c2ccccc2)[n+](=O)c2cc(Cl)c(Cl)cc2n1[O-] | 32.5 | 24.5 | 4.56 | 59.5 | 23.9 | 30.9 | 16.5 | 26.6 | 31.5 | 2.9 | 14.1 | 31.5 | 26.3 |  | 25.9 | 71.5 | 17.8
21 | NS(=O)(=O)c1nnc(NS(=O)(=O)c2ccccc2[N+](=O)[O-])s1 | > 100 | > 100 | > 100 | > 100 | > 100 | > 100 | > 100 | > 100 | > 100 | > 100 | > 100 | > 100 | > 100 | > 100 | > 100 |  | > 100
